From ChEMBL document CHEMBL4138122, “Azaphenothiazines - promising phenothiazine derivatives. An insight into nomenclature, synthesis, structure elucidation and biological properties” (Eur J Med Chem, 2017)
Values after ≈ are worked out from the molar mass of the structure shown.

Columns and labels:
[1] = system: Mycobacterium tuberculosis; assay: Antitubercular activity against Mycobacterium tuberculosis; type: functional
COLO 205 = assay: Cytotoxicity against human COLO205 cells assessed as cell growth inhibition after 48 hrs by SRB assay; type: functional, cell-based; conditions: COLO 205, 48 h
RXF 393 = assay: Cytotoxicity against human RXF393 cells assessed as cell growth inhibition after 48 hrs by SRB assay; type: functional, cell-based; conditions: RXF 393, 48 h
PC-3 = assay: Cytotoxicity against human PC3 cells assessed as cell growth inhibition after 48 hrs by SRB assay; type: functional, cell-based; conditions: PC-3, 48 h
SK-MEL-5 = assay: Cytotoxicity against human SK-MEL-5 cells assessed as cell growth inhibition after 48 hrs by SRB assay; type: functional, cell-based; conditions: SK-MEL-5, 48 h
NCI-H460 = assay: Cytotoxicity against human NCI-H460 cells assessed as cell growth inhibition after 48 hrs by SRB assay; type: functional, cell-based; conditions: NCI-H460, 48 h
EKVX = assay: Cytotoxicity against human EKVX cells assessed as cell growth inhibition at 2.1 ug/ml after 48 hrs by SRB assay; type: functional, cell-based
OVCAR-3 = assay: Cytotoxicity against human OVCAR3 cells assessed as cell growth inhibition after 48 hrs by SRB assay; type: functional, cell-based; conditions: OVCAR-3, 48 h
Malme-3M = assay: Cytotoxicity against human MALME-3M cells assessed as cell growth inhibition after 48 hrs by SRB assay; type: functional, cell-based
MCF7 = assay: Cytotoxicity against human MCF7 cells assessed as cell growth inhibition after 48 hrs by SRB assay; type: functional, cell-based; conditions: MCF7, 48 h
SR = assay: Cytotoxicity against human SR cells assessed as cell growth inhibition after 48 hrs by SRB assay; type: functional, cell-based
SF-268 = assay: Cytotoxicity against human SF268 cells assessed as cell growth inhibition after 48 hrs by SRB assay; type: functional, cell-based; conditions: SF-268, 48 h

Row | Compound | MIC [1] [µg/mL] | IC50 (COLO 205) [µg/mL] | IC50 (RXF 393) [µg/mL] | IC50 (PC-3) [µg/mL] | IC50 (SK-MEL-5) [µg/mL] | IC50 (NCI-H460) [µg/mL] | IC50 (EKVX) [µg/mL] | IC50 (OVCAR-3) [µg/mL] | IC50 (Malme-3M) [µg/mL] | IC50 (MCF7) [µg/mL] | IC50 (SR) [µg/mL] | IC50 (SF-268) [µg/mL]
1 | CCN(c1cnc2sc3c4c(=O)c5c(O)c(C)c6c(c5c-3nc2c1)C(=O)[C@@](C)(O/C=C/[C@H](OC)[C@@H](C)[C@@H](OC(C)=O)[C@H](C)[C@H](O)[C@H](C)[C@@H](O)[C@@H](C)/C=C/C=C(/C)C(=O)N4)O6)C(C)C | 0.005 (≈ 5.64 nM) | – | – | – | – | – | – | – | – | – | – | –
2 | [Cl-].c1ccc2nc3c(cc2c1)Sc1cc2ccccc2[n+]2c1N3CC2 | – | 1.3 | 5 | 10 | 1.5 | 7.4 | 7.6 | 7.8 | 1.3 | 3.2 | 4.9 | 8.5
